Patent US5760000A (University Technologies International,Inc., priority 1994, dated 1998)
Entries after “also recorded” stand apart in the source; their conditions may differ. Read-outs that look alike come from different tables or passages of the source.

Key:
[1] = biological target: GnRH receptor (HepG2 membrane preparation); test: GnRH in vitro binding to HepG2 membrane preparation (radioreceptor assay); parameters: species or system human; settings: Labeled ligand 125I-[D-Lys6]-GnRH; 95% confidence interval in parentheses; 4° C.
Protocol: (§1) Cells were grown to confluence as previously described and harvested from the flasks by using a rubber policeman. The cells were washed in normal assay buffer (([…] Tris[hydroxymethyl] aminomethane[Tris]-HCl), containing 1 mM dithiothreitol and 0.5% BSA [fraction-V] (pH 7.6)) and precipitated by centrifugation at 500g for 5 minutes at 4° C.
(§2) The cleaned cells were homogenized in 50 ml of freshly prepared ice cold 25 mM sucrose in assay buffer containing 1 mM Phenylmethanesulphonyl fluoride and 5 mM Ethylenediaminetetraacetic acid, using a glass TEFLON (polytetra-fluoroethylene) homogenizer, followed by centrifugation at 100 ×g for 5 minutes (4° C.). The supernatant was further centrifuged at 17,000×g for 30 minutes at 4° C., and the pellet (crude membrane preparation) washed briefly and resuspended in the assay buffer (approximately 40-50 μg membrane protein or approximately 1 x 10^6 cell equivalent per 100 μl).
(§3) For protein determination, aliquots of crude membrane preparations were washed twice with double distilled water by centrifugation (25,000 ×g) and assayed for protein content, using BSA as the standard. The binding assay was carried out at 4° C.
(§4) The displacement curves were fitted for both single and two classes of binding sites by computer calculated lines, as described.
(§5) The potency of various GnRH-related peptides in terms of binding (equilibrium dissociation constant; kd) and growth suppression activity in the human hepatocarcinoma derived cell line HepG2 was studied. […] Data analysis was performed as described.
(§6) Homologous displacement of GnRH-related peptides in membrane homogenates prepared from HepG2 cells and non-cancerous postmortem human liver tissue was studied. Values (mean ± SEM) represent specific binding [B/T, bound over total, in %] determined by subtraction of non-saturable binding in the presence of excess peptides (10^-5 M). Results were obtained from 5 to 7 separated experiments, each carried out in triplicate. The binding data were analyzed by computerized Scatchard analysis (LIGAND) according to Munson and Rodbard.

[2] = biological target: GnRH binding sites (normal human liver); test: GnRH in vitro binding to non-cancerous postmortem human liver membrane preparation; settings: Labeled ligand 125I-[D-Lys6]-GnRH; 95% confidence interval in parentheses; read-out: Receptor Binding Activity (Kd, nM) Normal Human Liver
Protocol: as §1, §2
(§7) A similar protocol was used to prepare the membrane from fresh rat and frozen human postmortem liver. In all experiments the final membrane preparation was used in the radioreceptor assay within 45 minutes.
as §3, §4, §6

[3] = biological target: GnRH binding sites (normal rat liver); test: GnRH in vitro binding to normal rat liver membrane preparation; settings: Labeled ligand 125I-[D-Lys6]-GnRH; 95% confidence interval in parentheses; read-out: Receptor Binding Activity (Kd, nM) Normal Rat Liver
Protocol: as §1, §2, §7, §3, §4

HepG2 cells [4] = test: HepG2 cell proliferation (cell counting); type: cell-based
Protocol: (§8) HepG2 or HuH-7 cells were maintained in 75-cm^2 flasks at 37° C. under a humidified atmosphere of 5% CO2 in modified Minimum Essential Medium (Gibco-BRL) supplemented with 10% fetal bovine serum, 200mM 1-Glutamine (1%), Penicillin (1000 IU/ml), streptomycin (100 μg/ml) and sodium bicarbonate (0.15%). Cells grown to confluence were harvested following mild trypsinization and wash (twice by slow centrifugation; 400 g for 10 minutes) in normal culture medium.
(§9) Approximately 50,000 cells in 1.0 ml culture media were plated in 24 deep well plates (Flacon). This time was considered day -1. Cells were allowed to grow for one day. The growing cells were then treated with various hormones (at day 0) prepared aseptically in culture media immediately prior to addition. The final volume was maintained at 1 ml. The plates were then incubated at 37° C. for a period of 4 to 6 days, as described above.
(§10) Cells in each well were harvested by removal of culture media and incubation with 0.5 ml 0.25% trypsin and 1.75 mM EDTA for 30 minutes at 37° C. Cells were then transferred into 1.5 ml microfuge tubes and centrifuged at 100g for 10 minutes. The supernatant was removed and the pellet was resuspended in a final volume of 200 μl of culture media containing 10% trypan blue.
Cells were then counted using a hemocytometer. The average cell mortality was less than 5.0% and was not different among different treatment groups. Each value represents the mean and standard error of several experiments (n>3), each carried out in quadruplicate incubations at each time point and hormone concentration.
as §5
The effect of GnRH-related peptides on the proliferation of the human hepatoma derived cell line HepG2 was studied. Values (mean ± SEM) represent the percent change with respect to initial cell number at day 0 over a period of six days in culture.
The dose response curves were analyzed by a computerized, four parameter curve fitting program (ALLFIT) as described. The result of time-related response on cell proliferation was analyzed using a two-way ANOVA with multiple comparison means of using computerized statistical package (SYSTAT).

HepG2 cells [5] = test: 3H-thymidine uptake in HepG2 cells; type: cell-based, human
Protocol: (§11) […] 3H-thymidine (Amersham TRK.120, 102 mCi/mg) was added to each well and was incubated at 37° C. for 4 hours. The media containing unabsorbed 3H-thymidine was aspired off and the cells were washed twice with ice cold phosphate buffered saline (PBS). The cells were then fixed with 5% trichloro acetic acid (TCA) for 20 minutes and washed twice with double distilled water. The fixed cells were solubilized with 0.2 ml NCS tissue solubilizer (Amersham) and counted for radioactivity using a liquid scintillation counter (50% efficiency).
The effect of GnRH-related peptides on ^3 H-thymidine incorporation was tested to assess changes in DNA synthesis of HepG2 cells (FIGS. 7A and 7B). Methods used were as previous described.

HuH-7 cells [6] = test: HuH-7 cell proliferation; type: cell-based, human; settings: single administration at 10^-7 M, six days in culture
Protocol: as §8, §9, §10
Cells were then counted using a hemocytometer. […]

HuH-7 cells [7] = test: 3H-thymidine uptake in HuH-7 cells; type: cell-based, human; settings: 10^-7 M, time-related
Protocol: as §11

- Kd [1]: 9.17 nM
- Kd [2]: 3300 nM
- Kd [3]: 769 nM
Compound: CC(C)C[C@H](NC(=O)[C@@H](CCCCN)NC(=O)[C@H](Cc1ccc(O)cc1)NC(=O)[C@H](CO)NC(=O)[C@H](Cc1c[nH]c2ccccc12)NC(=O)[C@H](Cc1c[nH]cn1)NC(=O)[C@@H]1CCC(=O)N1)C(=O)N[C@@H](CCCNC(=N)N)C(=O)N1CCC[C@H]1C(=O)NCC(N)=O [[D-Lys^6]-GnRH, pGlu-His-Trp-Ser-Tyr-DLys-Leu-Arg-Pro-Gly-NH2]
- Suppression of HepG2 growth ED50 (HepG2 cells [4]): 2.00 nM
- HepG2 doubling time (HepG2 cells [4]; 10 nM, calculated over 4 days of growth): 65 ± 4.9 h
- HepG2 doubling time (HepG2 cells [4]; 100 nM, calculated over 4 days of growth): 77 ± 6.7 h
- HepG2 doubling time (HepG2 cells [4]; 1000 nM, growth phase, over 4 days of growth): 105 ± 10.0 h
- Effect on HepG2 cell proliferation, repeated administration (HepG2 cells [4]; 10^-7 M every two days, six days in culture): significantly suppressed
- Reversal of HepG2 growth suppression after removing the peptide or adding GnRH antagonist (HepG2 cells [4]; after three days of treatment): can not be reversed; also recorded: cannot be reversed
- Suppression of HepG2 growth ED50 (HepG2 cells [4]; calculated at day 4 of growth): 2.00 ± 0.9 nM
- Effect on HepG2 cell proliferation (HepG2 cells [4]; single administration at 10^-7 M, six days in culture): significantly suppressed
- 3H-thymidine incorporation in HepG2 cells (HepG2 cells [5]; 10^-7 M, over 4 days of incubation): blocked further ^3 H-thymidine incorporation above the day 1 level
- ED50, inhibition of DNA synthesis (3H-thymidine incorporation) in HepG2 cells (HepG2 cells [5]; after 72 hours in culture): 0.18 ± 0.03 nM
- ED50, inhibition of DNA synthesis (3H-thymidine incorporation) in HepG2 cells (HepG2 cells [5]; after 96 hours in culture): 0.14 ± 0.02 nM
- Effect on HuH-7 cell proliferation (HuH-7 cells [6]): significantly suppressed; also recorded: totally inhibited
- 3H-thymidine incorporation in HuH-7 cells (HuH-7 cells [7]): blocked further ^3 H-thymidine incorporation above day 1 level
